Target: Glycogen synthase kinase-3 beta (Homo sapiens, UniProt P49841)
Test: Kinase Assay
Experimental: Kinase activities were assayed according to the methodology developed by the Cell Cycle Group of the Station Biologique (CNRS).

Sequence of Glycogen synthase kinase-3 beta (P49841 whole entry): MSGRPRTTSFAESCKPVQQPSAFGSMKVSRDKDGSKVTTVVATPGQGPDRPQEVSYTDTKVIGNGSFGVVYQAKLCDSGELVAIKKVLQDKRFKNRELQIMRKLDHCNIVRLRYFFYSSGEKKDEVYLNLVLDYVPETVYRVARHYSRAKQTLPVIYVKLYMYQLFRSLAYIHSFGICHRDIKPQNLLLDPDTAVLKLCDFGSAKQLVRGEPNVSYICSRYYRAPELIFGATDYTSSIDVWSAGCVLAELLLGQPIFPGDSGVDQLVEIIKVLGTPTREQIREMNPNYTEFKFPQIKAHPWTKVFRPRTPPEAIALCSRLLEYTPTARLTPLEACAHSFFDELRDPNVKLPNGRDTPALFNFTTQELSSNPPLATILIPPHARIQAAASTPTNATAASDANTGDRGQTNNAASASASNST

Compound	IC50 [µM]
CCOc1ccc(-c2csc3c2-n2cccc2C3=O)cc1 [Thienopyrrolizine derivative, 4c]	> 50
CC(=O)Oc1ccc(-c2csc3c2-n2cccc2C3=O)cc1OC(C)=O [Thienopyrrolizine derivative, 4h]	> 50
CCC(=O)Oc1ccc(-c2csc3c2-n2cccc2C3=O)cc1OC(=O)CC [Thienopyrrolizine derivative, 4i]	> 50
COc1ccc(-c2csc3c2-n2cccc2C3=O)cc1OC(C)=O [Thienopyrrolizine derivative, 4k]	> 50
CCOC(=O)Oc1cc(-c2csc3c2-n2cccc2C3=O)ccc1OC [Thienopyrrolizine derivative, 4l]	> 50
COc1ccc(-c2csc3c2-n2cccc2C3=O)cc1OC(=O)C(C)(C)C [Thienopyrrolizine derivative, 4m]	> 50
O=C1c2cscc2-n2cccc21 [Thienopyrrolizine derivative, 5]	> 50
COc1ccc(-c2csc3c2-n2cccc2C3O)cc1OCc1ccccc1 (centres undefined) [Thienopyrrolizine derivative, 13e]	> 50

Continued, values first:

IC50 [µM]	Compound
> 50	COc1ccc(-c2csc3c2-n2cccc2C3=O)cc1OCc1ccccc1
1.5	COc1ccc(-c2csc3c2-n2cccc2C3=O)cc1O [MR-22388]
> 50	Cc1ccc(-c2csc3c2-n2cccc2C3=O)cc1 [Thienopyrrolizine derivative, 4a]
> 50	COc1cccc(-c2csc3c2-n2cccc2C3=O)c1 [Thienopyrrolizine derivative, 4b]
11	COc1ccc(-c2csc3c2-n2cccc2C3=O)cc1OC(=O)CCCC(=O)O [Thienopyrrolizine derivative, 4n]
19	COc1ccc(-c2csc3c2-n2cccc2C3O)cc1O (centres undefined) [Thienopyrrolizine derivative, 13g]

— BindingDB's records for doi:10.1080/14756360400004565 (Universit&Eacute, 2004)
